Measurements published in patent US20050107455A1, “Novel tricycloimidazoline derivatives method for production and use thereof as medicaments” (priority 2002, published 2005).
Where a name gives a salt, the structure may show the parent alone.

Tests used:
[1] = target: T1, human alpha-2A receptor (Homo sapiens, UniProt P08913); test: Binding to the adrenergic alpha-2A receptor, [3H]RX 821002, C6 cell membranes; settings: membranes of C6 cells expressing human alpha-2A; 2 nM [3H]RX 821002; 30 minutes at 25° C.; read-out: Affinity (pKi) Alpha-2A (converted)
T1 construct: expressed in transfected cells; host or cells: C6 cells (permanent expression), membranes
T1 sequence (P08913 1-465): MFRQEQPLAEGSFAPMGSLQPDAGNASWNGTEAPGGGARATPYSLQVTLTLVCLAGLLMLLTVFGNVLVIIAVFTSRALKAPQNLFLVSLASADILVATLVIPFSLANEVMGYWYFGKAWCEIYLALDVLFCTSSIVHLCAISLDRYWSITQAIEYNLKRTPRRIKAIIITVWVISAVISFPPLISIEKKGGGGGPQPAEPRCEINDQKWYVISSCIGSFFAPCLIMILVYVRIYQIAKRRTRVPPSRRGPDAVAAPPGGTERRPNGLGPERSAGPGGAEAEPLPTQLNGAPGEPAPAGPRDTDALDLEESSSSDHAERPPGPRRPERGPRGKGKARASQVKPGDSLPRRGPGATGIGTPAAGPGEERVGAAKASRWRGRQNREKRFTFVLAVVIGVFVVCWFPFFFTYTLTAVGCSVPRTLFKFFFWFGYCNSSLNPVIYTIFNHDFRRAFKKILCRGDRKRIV
Description: (§1) Membranes of C6 cells permanently expressing either the human alpha-2A or alpha-2B receptor are prepared in Tris-HCl (pH=7.6). The binding tests are performed with 2 nM [^3H]RX 821002. The incubation medium is composed of 0.4 ml of cell membranes (10 μg of proteins), 0.05 ml of radioligand and 0.05 ml of test product or of phentolamine (10 μM) to determine the nonspecific binding. The reaction is quenched after incubation for 30 minutes at 25° C. by adding 3 ml of cold 50 mM Tris-HCl (pH=7.6), followed by filtration through Whatman GF/B filters using a Brandel. The Ki values are calculated according to the equation Ki=IC50/(1+C/Kd) in which C is the concentration and Kd the dissociation constant, pKi=−logKi. Under these conditions, it is seen that the compounds of the invention have high affinity for the receptors of the human adrenergic alpha-2A subtype, whereas they have little or no affinity for the receptors of the human adrenergic alpha-2B subtype (cf. above table). This unexpected receptor selectivity of the compounds of the invention, compared with the compounds of the prior art, may have a favorable impact on their tolerance.

[2] = target: T2, human alpha-2A adrenergic receptors (Homo sapiens, UniProt P08913); test: Measurement of the activation of the adrenergic alpha-2 receptors (GTPγS response on membrane preparations); format: biochemical; settings: GTPγS response versus maximum stimulation by (−)-adrenalin, negative = inverse agonist, read-out: Intrinsic activity % stimulated
T2 construct: host or cells: membrane preparations
T2 sequence (P08913 1-465): T1 sequence (P08913 1-465)
Description: Measurement of the Activation of the Adrenergic Alpha-2 Receptors:
The responses as GTPγS are performed on membrane preparations in 20 mM HEPES (pH=7.4) with 30 μM of GDP, 100 mM of NaCl, 3 mM of MgCl2 and 0.2 mM of ascorbic acid. The maximum stimulation of the GTPγS is determined in the presence of […] of (−)-adrenalin and calculated versus the basal GTPγS response. The results are expressed versus either adrenalin or RX 81105-9. Under these conditions, the compounds of the invention are distinguished from most of the compounds of the prior art of the 4,5-dihydro-1H-imidazole and/or 1H-imidazole type in that they behave rather as inverse agonists on human alpha-2A adrenergic receptors (cf. above table).

[3] = system: Scopolamine-induced memory deficiency; test: Test of scopolamine-induced memory deficiency (passive avoidance); format: in vivo; settings: rats
From the text: Test of Scopolamine-Induced Memory Deficiency:
Scopolamine has amnesiant properties in man and animals. Thus, its administration to a healthy person causes certain symptoms similar to what is observed in Alzheimer's disease. Scopolamine-induced memory deficiency is thus used as an experimental pharmacological model of this pathology. Scopolamine reduces the capacity for acquisition, memorization and recall in a test of passive avoidance in rats. […] The administration of scopolamine suppresses this reticence, and the test compounds counter the effect of scopolamine. The experimental protocol used is described in Psychopharmacol. 1992, 106, 26-30.

[4] = target: T3, human alpha-2B receptor (Homo sapiens, UniProt P18089); test: Binding to the adrenergic alpha-2B receptor, [3H]RX 821002, C6 cell membranes; settings: membranes of C6 cells expressing human alpha-2B; 2 nM [3H]RX 821002; 30 minutes at 25° C.; read-out: Affinity (pKi) Alpha-2B (converted)
T3 construct: expressed in transfected cells; host or cells: C6 cells (permanent expression), membranes
T3 sequence (P18089 1-450): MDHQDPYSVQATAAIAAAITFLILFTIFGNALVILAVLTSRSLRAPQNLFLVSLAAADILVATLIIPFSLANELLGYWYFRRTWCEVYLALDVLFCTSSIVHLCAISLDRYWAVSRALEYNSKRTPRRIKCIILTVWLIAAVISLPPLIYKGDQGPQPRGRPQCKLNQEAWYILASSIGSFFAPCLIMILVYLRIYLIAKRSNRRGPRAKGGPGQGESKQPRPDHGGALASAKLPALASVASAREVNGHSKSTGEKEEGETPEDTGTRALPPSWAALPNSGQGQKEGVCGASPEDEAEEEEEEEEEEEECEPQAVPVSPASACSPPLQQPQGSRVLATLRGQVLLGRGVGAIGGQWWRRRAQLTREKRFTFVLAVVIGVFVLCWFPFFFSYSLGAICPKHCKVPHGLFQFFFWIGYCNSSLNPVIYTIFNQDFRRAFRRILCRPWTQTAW
Description: as §1

SMILES	melting point [°C]	Ki [1] [nM]	Emax [2] [%]	Ki [4] [nM]	also measured
CNCC(O)c1ccc(O)c(O)c1 (single isomer, unassigned; (-)) [(−)-adrenalin, reference compound]			100		
COC1c2ccccc2C2CC21C1=NCCN1 (single isomer, unassigned; (+)) (as salt: fumarate) [(+) -XV-1, (+)-2-(6-Methoxy-1a,6-dihydro-1H-cyclopropa[a]inden-6a-yl)-4,5-dihydro-1H-imidazole]	170 to 172				
c1ccc2c(c1)CC1(C3=NCCN3)CC21 (single isomer, unassigned; (-)) (as salt: hydrochloride) [(−)-XVII-1, (−)-2-(1a,6-Dihydro-1H-cyclopropa[a]inden-6a-yl)-4,5-dihydro-1H-imidazole]	245 to 247				
COC1c2ccccc2C2CC21C1=NCCN1 (single isomer, unassigned; (+)) [(+) -XV-1, (+)-2-(6-Methoxy-1a,6-dihydro-1H-cyclopropa[a]inden-6a-yl)-4,5-dihydro-1H-imidazole]		3.98	-63	> 10000	
COc1cc2c(cc1OC)C(=O)C(CC1CCN(Cc3ccccc3)CC1)C2 (stereo not drawn) [donepezil, reference compound]					Scopolamine-induced memory deficiency amplitude of the effect % ([3]; dose 0.16 mg/kg i.p.): +67 (0.16) %

Further lines, with some results ahead:

melting point [°C]	Ki [1] [nM]	Emax [2] [%]	Ki [4] [nM]	SMILES	also measured
173 to 175				CO[C@H]1c2ccccc2C2C[C@]21C1=NCCN1 (mixture of isomers) (as salt: fumarate) [XV-1, 2-(6-Methoxy-1a,6-dihydro-1H-cyclopropa[a]-inden-6a-yl)-4,5-dihydro-1H-imidazole]	
177 to 179				COc1cccc2c1C1C[C@@]1(C1=NCCN1)[C@H]2OC (stereo in doubt) (as salt: fumarate) [XV-1a, 2-(2,6-Dimethoxy-1a,6-dihydro-1H-cyclopropa[a]inden-6a-yl)-4,5-dihydro-1H-imidazole]	
	3.16	-64	20	C[C@@H]1[C@H]2c3ccccc3C[C@@]12C1=NCCN1 (racemic) [XVII-2, 2-(1-exo-Methyl-1a,6-dihydro-1H-cyclopropa-[a]inden-6a-yl)-4,5-dihydro-1H-imidazole]	Scopolamine-induced memory deficiency amplitude of the effect % ([3]; dose 0.63 mg/kg i.p.): +181 (0.63) %
133 to 135				C[C@@H]1[C@H]2c3ccccc3C[C@@]12C1=NCCN1 (racemic) (as salt: fumarate) [XVII-2, 2-(1-exo-Methyl-1a,6-dihydro-1H-cyclopropa-[a]inden-6a-yl)-4,5-dihydro-1H-imidazole]	
	12.6	-2	316	CO[C@H]1c2ccccc2C2C[C@]21C1=NCCN1 (mixture of isomers) [XV-1, 2-(6-Methoxy-1a,6-dihydro-1H-cyclopropa[a]-inden-6a-yl)-4,5-dihydro-1H-imidazole]	Scopolamine-induced memory deficiency amplitude of the effect % ([3]; dose 2.5 mg/kg i.p.): +168 (2.5) %
